Measured values reported in paper PMC4479967 (Journal of molecular neuroscience : MN, 2015).
Entries after “also recorded” stand apart in the source; their conditions may differ.

Key:
[1] = system: ERK tyrosine phosphorylation in NCI-H727 cells; experiment: ERK tyrosine phosphorylation; format: cell-based, human; conditions: for Inhibition of CCK-8-induced ERK phosphorylation, in words / Inhibition of CCK-8-induced ERK phosphorylation (T. Moody, unpublished): NCI-H727 cells; for Inhibition of CCK-8-induced ERK phosphorylation, in words: concentration not given at this place; for Inhibition of CCK-8-induced ERK tyrosine phosphorylation: Fig. 2C
[2] = system: EGFR tyrosine phosphorylation in NCI-H727 cells; experiment: EGFR tyrosine phosphorylation; format: cell-based, human; conditions: for Inhibition of CCK-8-induced EGFR tyrosine phosphorylation, in words: NCI-H727 cells, concentration not given at this place; for Significance of inhibition of CCK-8-induced EGFR tyrosine phosphorylation: Fig. 2B
[3] = system: TGF α secretion from NCI-H727 cells; experiment: TGF α secretion from NCI-H727 cells; format: cell-based, human; conditions: preliminary data, T. Moody unpublished
[4] = system: SCLC; conditions: basal or CCK-8-stimulated growth; ref Moody and Jensen, 2001; cited from earlier work
[5] = system: cytosolic Ca2+ in NCI-H727 cells; experiment: Cytosolic Ca2+ in Fura-2AM loaded NCI-H727 cells; format: cell-based, human; conditions: for Effect on basal cytosolic Ca2+: CI-988 1 µM (Fig. 3D), L-364,718 concentration not printed (Fig. 3C)
[6] = system: NCI-H727 cells; experiment: Clonogenic assay, clonal growth of NCI-H727 cells; conditions: for Effect on CCK-8-stimulated increase in colony number: CI-988 3 µM or gefitinib 1 µM, CCK-8 10 nM
[7] = system: reactive oxygen species in NCI-H727 cells; experiment: Reactive oxygen species in NCI-H727 cells; format: cell-based, human; conditions: CI-988 (10 µM, Table II), Tiron unpublished (T. Moody)
[8] = system: NCI-H727 cells; experiment: MTT proliferation assay, NCI-H727 cells
[9] = system: AR42J cells; conditions: cited from earlier work
[10] = system: SCLC cells; conditions: ref Staley et al., 1990; cited from earlier work
[11] = system: CCK1R; conditions: ref Jensen et al., 1989; cited from earlier work
[12] = system: CCK2R; conditions: ref Innes and Snyder, 1980; cited from earlier work
[13] = system: GLC19 cells; conditions: literature discussion, ref Sethi et al., 1993; cited from earlier work
[14] = system: NCI-H510 cells; conditions: 0.1 µM; ref Sethi et al., 1993; cited from earlier work
[15] = cited from earlier work
[16] = 10 µM as printed in legend (Fig. 4C)
[17] = 5 mM NAC or Tiron (Fig. 4A, B), p < 0.05 relative to CCK-8

Compound: CNC(=O)[C@H](Cc1c[nH]c2ccccc12)NC(=O)[C@@H](CC(=O)NO)CC(C)C [GM6001]
- Inhibition of CCK-8-induced ERK phosphorylation, in words [1]: significantly inhibited
- Effect on basal EGFR tyrosine phosphorylation [2, 16]: no effect
- Inhibition of CCK-8-induced EGFR tyrosine phosphorylation ([2]; GM6001 1 µM as printed in text (Fig. 4C, D), p < 0.01 relative to CCK-8): significantly inhibited
- Inhibition of CCK-8-induced EGFR transactivation ([2]; GM6001 10 µM as printed in legend of Fig. 4C): inhibited the increase in EGFR transactivation
- Inhibition of CCK-8-induced EGFR tyrosine phosphorylation, in words [2]: blocked; also recorded: significantly inhibited
- Effect on CCK-8-stimulated secretion of TGF α [3]: inhibits

Compound: EGF: epidermal growth factor, EGFR ligand (NSDSECPLSHDGYCLHDGVCMYIEALDKYACNCVVGYIGERCQYRDLKWWELR; UniProt P01133 971-1023, looked up)
- EGFR tyrosine phosphorylation, in words ([2]; 0.1 µM (100 nM) ligand, 2 min, NCI-H727): strongly

Compound: CC(=O)N[C@@H](CS)C(=O)O [NAC, N-acetylcysteine]
- Effect on basal EGFR tyrosine phosphorylation ([2]; 5 mM (Fig. 4A)): no effect
- Inhibition of CCK-8-induced EGFR transactivation [2, 17]: inhibited significantly; also recorded: inhibited the increase in EGFR transactivation

Compound: C[C@](Cc1c[nH]c2ccccc12)(NC(=O)OC1[C@H]2C[C@@H]3C[C@@H](C[C@H]1C3)C2)C(=O)NC[C@H](NC(=O)CCC(=O)O)c1ccccc1 (stereo partly drawn) [CI-988]
- Effect on SCLC growth [4]: inhibit
- Inhibition of CCK-8-induced ERK tyrosine phosphorylation ([1]; CI-988 1 µM): not 1 µM
- Inhibition of CCK-8-induced ERK tyrosine phosphorylation ([1]; CI-988 10 µM, p < 0.05 relative to CCK-8): significantly inhibited
- Inhibition of CCK-8-induced ERK phosphorylation, in words [1]: significantly inhibited
- Inhibition of CCK-8-induced ERK phosphorylation (T. Moody, unpublished) [1]: blocked
- Effect on total ERK ([1]; Western blot, Fig. 2A): no effect
- Antagonism of gastrin-17-induced ERK tyrosine phosphorylation ([1]; data not shown): antagonized
- Effect on basal cytosolic Ca2+ [5]: no effect
- Colony number + 10 nM CCK-8 ([6]; CI-988 3 uM + 10 nM CCK-8 (CCK-8 alone 74 ± 9), mean ± S.D. of 3 determinations): 44 ± 5
- Effect on CCK-8-stimulated increase in colony number [6]: reversed
- Colony number ([6]; CI-988 3 uM, no CCK-8, control 42± 6, mean ± S.D. of 3 determinations, 2 weeks): 21 ± 3
- Reduction of colony number ([6]; CI-988 (3 µM), no CCK-8): 50%
- Effect on NCI-H727 proliferation, in words ([6]; NCI-H727 cells): inhibit proliferation
- Effect on basal growth or growth stimulated by CCK-8, in words ([6]; NCI-H727 cells): inhibited the basal growth of NCI-H727 cells or that stimulated by CCK-8
- Inhibition of CCK-8-induced EGFR tyrosine phosphorylation ([2]; CI-988 1 µM vs 0.1 µM CCK-8 (Fig. 2A)): weakly
- Significance of inhibition of CCK-8-induced EGFR tyrosine phosphorylation ([2]; CI-988 1 µM): not 1 µM
- Inhibition of CCK-8-induced EGFR tyrosine phosphorylation ([2]; CI-988 10 µM vs 0.1 µM CCK-8 (Fig. 2A)): strongly
- Significance of inhibition of CCK-8-induced EGFR tyrosine phosphorylation ([2]; CI-988 10 µM, p < 0.01 relative to CCK-8): significantly inhibited
- Inhibition of CCK-8-induced EGFR tyrosine phosphorylation, in words [2]: blocked; also recorded: significantly inhibited
- Effect on total EGFR ([2]; Western blot, Fig. 2A): no effect
- Antagonism of gastrin-17-induced EGFR tyrosine phosphorylation ([2]; data not shown): antagonized
- Inhibition of CCK-8-induced ROS increase, in words [7]: blocked significantly; also recorded: inhibited
- Potentiation of growth inhibitory effects of gefitinib ([8]; NCI-H727 cells): potentiated the growth inhibitory effects of gefitinib

Compound: COc1cc2ncnc(Nc3ccc(F)c(Cl)c3)c2cc1OCCCN1CCOCC1 [Gefitinib]
- Effect on CCK-8-stimulated increase in colony number [6]: reversed
- Effect on basal growth or growth stimulated by CCK-8, in words ([6]; NCI-H727 cells): inhibited the basal growth of NCI-H727 cells or that stimulated by CCK-8
- Reduction of colony number ([6]; gefitinib (1 µM), no CCK-8): 37%
- Increase in cytotoxicity of gefitinib in presence of CI-988 ([8]; gefitinib with CI-988): approximately an order of magnitude

Compound: O=S(=O)(O)c1cc(O)c(O)c(S(=O)(=O)O)c1 [Tiron]
- Effect on basal EGFR tyrosine phosphorylation ([2]; 5 mM (Fig. 4A)): no effect
- Inhibition of CCK-8-induced EGFR transactivation [2, 17]: inhibited significantly; also recorded: inhibited the increase in EGFR transactivation
- Inhibition of CCK-8-induced EGFR tyrosine phosphorylation, in words [2]: inhibited
- Inhibition of CCK-8-induced EGFR tyrosine phosphorylation, in words ([2]; listed as tiron): blocked
- Inhibition of CCK-8-induced ROS increase, in words [7]: inhibited

Compound: COc1cc2ncnc(Nc3cccc(Cl)c3)c2cc1OC [AG1478]
- Effect on CCK-8-induced EGFR and ERK tyrosine phosphorylation in AR42J cells ([9]; ref Piiper et al., 2003): inhibited

Compound: CC(C)(C)n1nc(-c2ccc(Cl)cc2)c2c(N)ncnc21 [PP2]
- Inhibition of CCK-8-induced ERK phosphorylation, in words [1]: significantly inhibited
- Effect on CCK-8-stimulated increase in P-Src and P-ERK in AR42J cells ([9]; ref Ferrand et al., 2006): inhibited
- Inhibition of CCK-8-induced EGFR tyrosine phosphorylation ([2]; 10 µM PP2 (Fig. 4C, D), p < 0.01 relative to CCK-8): significantly inhibited; also recorded: inhibited the increase in EGFR transactivation
- Effect on basal EGFR tyrosine phosphorylation [2, 16]: no effect
- Inhibition of CCK-8-induced EGFR tyrosine phosphorylation, in words [2]: blocked; also recorded: significantly inhibited

Compound: CN1C(=O)[C@@H](NC(=O)c2cc3ccccc3[nH]2)N=C(c2ccccc2)c2ccccc21 [L-364,718]
- Antagonism of effects of CCK-8 on SCLC cells [10]: not L-364,718
- Effect on basal cytosolic Ca2+ [5]: no effect
- CCK1R antagonism, in words [11]: antagonized

Compound: Cc1cccc(NC(=O)N[C@@H]2N=C(c3ccccc3)c3ccccc3N(C)C2=O)c1 [L-365,260]
- Antagonism of effects of CCK-8 on SCLC cells [10]: blocked
- Effect on SCLC growth [4]: inhibit
- CCK2R antagonism, in words [12]: antagonized

Compound: gastrin
- Effect on cytosolic Ca2+ in GLC19 cells [13]: no effect
- Effect on cytosolic Ca2+, in words ([5]; 10 nM, Fura-2AM, 37°C, representative of 3 others (Fig. 3A, B)): increased the cytosolic Ca^2+
- Effect on cytosolic Ca2+ in NCI-H510 cells [14]: increased cytosolic Ca^2+
- Effect on heparin binding (HB) EGF ([15]; PKC-dependent, ref Sinclair et al., 2004): increases
- Effect on COX-2 and prostaglandin E2 expression ([15]; colon cancer cells, ref Colucci et al., 2005): increases COX-2 and prostaglandin E2 expression
- Effect on MMP9 expression ([15]; gastric epithelial cells, ref Wroblewski et al., 2002): increases
- Effect on ELK-1 and COX-2 expression ([15]; intestinal epithelial cells, ref Guo et al., 2002): increased ELK-1 and COX-2 expression
- Effect on c-fos expression ([15]; ref Stepan et al., 1999): increases c-fos expression
- Effect on expression of HB-EGF and amphiregulin ([15]; ref Tsutsui et al., 1997): increases

Compound: COc1cccc(-c2cc(=O)c3ccccc3o2)c1N [PD98059]
- Inhibition of CCK-8-induced ERK phosphorylation (T. Moody, unpublished) [1]: blocked
